# Test results: ChEMBL document CHEMBL2203277, “Synthesis and antibacterial activity of novel modified 5-O-desosamine ketolides” (2012)
# What was measured:
# Assay type in all cases: functional
# Streptococcus pneumoniae [1] = experiment: Antibacterial activity against erythromycin-sensitive Streptococcus pneumoniae ATCC 49619 by broth microdilution method
# Staphylococcus aureus [2] = experiment: Antibacterial activity against methicillin-resistant Staphylococcus aureus 09N120 by broth microdilution method
# Staphylococcus aureus [3] = experiment: Antibacterial activity against methicillin-sensitive Staphylococcus aureus 09O077 by broth microdilution method
# Streptococcus pneumoniae [4] = experiment: Antibacterial activity against erythromycin-sensitive Streptococcus pneumoniae 09H065 by broth microdilution method
# Streptococcus pneumoniae [5] = experiment: Antibacterial activity against erythromycin-resistant Streptococcus pneumoniae 09E427 by broth microdilution method
# [6] = test system: Staphylococcus epidermidis; experiment: Antibacterial activity against methicillin-resistant Staphylococcus epidermidis 09M124 by broth microdilution method
# [7] = test system: Staphylococcus epidermidis; experiment: Antibacterial activity against methicillin-sensitive Staphylococcus epidermidis 09A011 by broth microdilution method
# Streptococcus pneumoniae [8] = experiment: Antibacterial activity against erythromycin-resistant Streptococcus pneumoniae 09D016 by broth microdilution method
# Streptococcus pneumoniae [9] = experiment: Antibacterial activity against erythromycin-sensitive Streptococcus pneumoniae 09H071 by broth microdilution method
# [10] = test system: Staphylococcus epidermidis; experiment: Antibacterial activity against methicillin-resistant Staphylococcus epidermidis 09R476 by broth microdilution method
# [11] = test system: Staphylococcus epidermidis; experiment: Antibacterial activity against methicillin-sensitive Staphylococcus epidermidis 09G291 by broth microdilution method
# Staphylococcus aureus [12] = experiment: Antibacterial activity against methicillin-sensitive Staphylococcus aureus 09U035 by broth microdilution method
# Streptococcus pyogenes [13] = experiment: Antibacterial activity against erythromycin-resistant Streptococcus pyogenes 09Q149 by broth microdilution method
# Staphylococcus aureus [14] = experiment: Antibacterial activity against methicillin-sensitive Staphylococcus aureus ATCC 29213 by broth microdilution method
# Streptococcus pyogenes [15] = experiment: Antibacterial activity against erythromycin-sensitive Streptococcus pyogenes 09U070 by broth microdilution method
# Staphylococcus aureus [16] = experiment: Antibacterial activity against methicillin-resistant Staphylococcus aureus 09L075 by broth microdilution method
Compound,MIC (Streptococcus pneumoniae [1]) [µg/mL],MIC (Staphylococcus aureus [2]) [µg/mL],MIC (Staphylococcus aureus [3]) [µg/mL],MIC (Streptococcus pneumoniae [4]) [µg/mL],MIC (Streptococcus pneumoniae [5]) [µg/mL],MIC [6] [µg/mL],MIC [7] [µg/mL],MIC (Streptococcus pneumoniae [8]) [µg/mL],MIC (Streptococcus pneumoniae [9]) [µg/mL],MIC [10] [µg/mL],MIC [11] [µg/mL],MIC (Staphylococcus aureus [12]) [µg/mL],MIC (Streptococcus pyogenes [13]) [µg/mL],MIC (Staphylococcus aureus [14]) [µg/mL],MIC (Streptococcus pyogenes [15]) [µg/mL],MIC (Staphylococcus aureus [16]) [µg/mL]
CC[C@H]1OC(=O)[C@H](C)C(=O)[C@H](C)[C@@H](O[C@@H]2O[C@H](C)[C@@H](OCc3ccccc3)[C@H](N(C)C)[C@H]2O)[C@](C)(OC)C[C@@H](C)C(=O)[C@H](C)[C@@H]2OC(=O)O[C@]12C,4,> 32,> 32,4,> 32,32,16,> 32,4,32,> 32,> 32,> 32,32,> 32,> 32
CC[C@H]1OC(=O)[C@H](C)C(=O)[C@H](C)[C@@H](O[C@@H]2O[C@H](C)[C@@H](O)[C@H](N(C)C)[C@H]2O)[C@](C)(OC)C[C@@H](C)C(=O)[C@H](C)[C@@H]2OC(=O)O[C@]12C,0.062,> 32,> 32,0.062,> 32,0.25,0.125,> 32,≤ 0.031,0.25,> 32,> 32,> 32,0.125,≤ 0.031,0.125
C=CCO[C@H]1[C@H](N(C)C)[C@@H](O)[C@H](O[C@@H]2[C@@H](C)C(=O)[C@@H](C)C(=O)O[C@H](CC)[C@@]3(C)OC(=O)O[C@H]3[C@@H](C)C(=O)[C@H](C)C[C@@]2(C)OC)O[C@@H]1C,0.5,> 8,> 8,0.5,> 8,4,2,> 8,1,4,> 8,> 8,> 8,4,> 8,8
CC[C@H]1OC(=O)[C@H](C)[C@@H](O[C@H]2C[C@@](C)(OC)[C@@H](O)[C@H](C)O2)[C@H](C)[C@@H](O[C@@H]2O[C@H](C)C[C@H](N(C)C)[C@H]2O)[C@](C)(OC)C[C@@H](C)C(=O)[C@H](C)[C@@H](O)[C@]1(C)O [CLARITHROMYCIN],0.125,> 32,> 32,0.062,> 32,32,0.125,> 32,0.062,0.25,> 32,> 32,> 32,0.25,0.031,2
CC[C@H]1OC(=O)[C@H](C)[C@@H](O[C@H]2C[C@@](C)(OC)[C@@H](O)[C@H](C)O2)[C@H](C)[C@@H](O[C@@H]2O[C@H](C)C[C@H](N(C)C)[C@H]2O)[C@](C)(O)C[C@@H](C)C(=O)[C@H](C)[C@@H](O)[C@]1(C)O [ERYTHROMYCIN],0.062,> 256,> 256,0.062,> 256,128,0.062,> 256,0.062,0.125,> 256,> 256,> 256,0.25,0.031,0.5
CC[C@H]1OC(=O)[C@H](C)C(=O)[C@H](C)[C@@H](O[C@@H]2O[C@H](C)C[C@H](N(C)C)[C@H]2O)[C@](C)(OC)C[C@@H](C)C(=O)[C@H](C)[C@H]2N(CCCCn3cnc(-c4cccnc4)c3)C(=O)O[C@]12C [TELITHROMYCIN],0.031,> 64,> 64,0.031,0.25,0.25,0.125,0.125,0.031,0.125,> 64,> 64,2,0.125,0.016,0.125
